Legend:
[1] = test system: annual sugar beet variety (SLC03); assay: Plant growth regulator activity, preemergence; type: in vivo; details: for observed effect (preemergence): 400 ppm; for minimal effective concentration: Beta vulgaris, pre-emergence, 6-7 weeks, read-out: Bolting Inhibition (preemergence), concentration with observed effect
Excerpt: Using a regular biennial variety, even a bolting-susceptible variety would require a cold treatment of around 10-16 weeks plus a hormone treatement in conjunction with specific light intensities. Thus, for a screening organism, we selected one which would consistently produce bolting on a regular schedule. The screen is run with an annual sugar beet variety (SLC03) provided by Dr. Richard J. Hecker, Fort Collins, Colo. This variety is an inbred which bolts in the 6- to 8-leaf stage without any need for vernalization. This allows the screen to be run entirely in the greenhouse with all 110 chemical compounds tested on one tray. The sugarbeets are grown in 3×3 inch square pots in a greenhouse sandy loam potting mix. The sugarbeets are sprayed with test compounds when they are 2 to 3 weeks old (2 true leaves). The compounds are dissolved in acetone and diluted with water containing Tween 20 as a wetting agent. The concentration of acetone in the final spray is 20% and the concentration of Tween 20 is 0.05 percent. The plants are examined for the appearance of a bolt 4 weeks after spraying.
Preemergence tests are conducted by spraying formulated chemical on seeds placed on potting soil. The sprayed seeds are then covered with 1/4 inch of potting soil and the pots are watered. Bolting is evaluated 6-7 weeks after the initiation of the test. At this time untreated plants have a vigorous bolting stem with visible flowers.

[2] = test system: nitrification of ammonium nitrogen; assay: Suppression of nitrification of ammonium nitrogen in soil; details: 27° C.
How it was run: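 Soil (20 g) moistened to its 1/3 bar tension value, mixed with test chemical and incubated sealed for two weeks at 27° C. Nitrate extracted with ammonium sulfate solution and measured by nitrate-specific ion electrode; value given as % NH4-N remaining.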

Structure (SMILES)	observed effect (preemergence) [1]	minimal effective concentration [1] [µg/mL]	% NH4-N Remaining After 2 Weeks Incubation ([2]; 0.01 ppm) [%]	% NH4-N Remaining After 2 Weeks Incubation ([2]; 0.125 ppm) [%]	% NH4-N Remaining After 2 Weeks Incubation ([2]; 1 ppm) [%]	% NH4-N Remaining After 2 Weeks Incubation ([2]; 10 ppm) [%]	% NH4-N Remaining After 2 Weeks Incubation ([2]; 0.06 ppm) [%]	% NH4-N Remaining After 2 Weeks Incubation ([2]; 0.25 ppm) [%]	% NH4-N Remaining After 2 Weeks Incubation ([2]; 4 ppm) [%]	% NH4-N Remaining After 2 Weeks Incubation ([2]; 0.1 ppm) [%]
O=S(=O)(Nc1ccccc1F)c1nc2ncc(Cl)cn2n1 [Compound 133]	stunting	400								
CCN(C)S(=O)(=O)c1ccccc1NS(=O)(=O)c1nc2nc(C)cc(C)n2n1 [Compound 16]		400	0	0	26	67				
Cc1cc(C)n2nc(S(=O)(=O)Nc3ccccc3C(=O)c3ccccc3)nc2n1 [Compound 95]		400			53		26	36	67	
Cc1cc(C)n2nc(S(=O)(=O)Nc3cc(C(F)(F)F)ccc3Cl)nc2n1 [Compound 52]		100	0		74	91				39
Cc1nc2nc(S(=O)(=O)Nc3ccccc3Cl)nn2c(C)c1Cl [Compound 198]	stunting	400			53		22	37	74	
